Here are results for three molecules from patent US20060252723A1, “Combined therapy utilizing reduction of DNA methyltransferase expression and/or activity and interferon” (Methylgene, Inc. The Cleveland Clinic Foundation, priority 2005, published 2006).

The target in one series is T1, DNMT1 protein (Homo sapiens, UniProt P26358).
T1 construct: endogenous in cells; host or cells: ACHN renal cell carcinoma cells
Put plainly: DNMT1 protein immunoblot after DNMT1 AS or 5-AZA-dC treatment. The series is classed as cell-based. Particulars: ACHN cells; 40 nM DNMT1 AS daily over 9 days or 200 nM 5-AZA-dC daily over 4 days; protein 4, 24, 48 hrs after last treatment. The method, then: ACHN Renal cell carcinoma cells were cultured at 37° C. in 5% CO2 using Minimum Essential Medium (GIBCO, Invitrogen, Carlsbad, Calif.) with 0.1 mM non-essential amino acids (GIBCO), 1.0 mM pyruvate (GIBCO), 10% fetal bovine serum, penicillin G (50 U/ml), and streptomycin (50 μg/ml). WM9 melanoma cells (13) were grown in RPMI medium (GIBCO) containing 10% fetal bovine serum, penicillin G (50 U/ml), and streptomycin (50 μg/ml) under the same incubator conditions.
To selectively downregulate DNMT1, cells were transfected with MG98 (MethylGene, Quebec, Canada), a second-generation 4×4 2′methyl phosphorothioate oligonucleotide antisense against the 3′ UTR of DNMT1 mRNA (5′-[…]-3) or mismatch (underlined) control oligonucleotide (5′-[…]-3′) (SEQ ID NO:40) at indicated concentrations starting one day after plating at 15000 cells/cm^2. Transfections were performed daily with 6.25 μg/ml Lipofectin (Invitrogen, Carlsbad, Calif.) in OptiMem (GIBCO, Invitrogen, Carlsbad, Calif.) over 4 hr. Before and after transfections cells were washed once with PBS. Every second day cells were replated at 15000 cells/cm^2 four hr after the preceding transfection. 5-AZA-dC (Sigma-Aldrich, St Louis, Mo.) stock solution (100 mM) in DMSO and working solutions for one time use in PBS (1 mM) were stored at −20° C. […]
A general note: Immunoblotting shows a protein as a band on a membrane.

Series [1] relates to ACHN cells. The series is described as follows: real-time RT-PCR for stat1, stat2 genes. The series is classed as cell-based, human. On the technique in general: In qPCR the cycle at which signal appears reflects the starting amount.
Series [2] relates to ACHN cells. Put plainly: cDNA array analysis (Affymetrix U133A). The series is classed as cell-based, human. The text has this:
To identify additional genes reactivated through DNA demethylation and of potential importance for the sensitization to IFN-induced apoptosis we performed cDNA array analysis with RNA harvested from ACHN cells 24 hr after the 8th DNMT1 AS transfection and 16 hr after 50 U/ml IFN β 1a treatment. RNA was harvested as mentioned above using Trizol (Invitrogen, Carlsbad, Calif.) method followed by transcription into cRNA, according to Affymetrix (Santa Clara, Calif.) recommendations for U133A array hybridization. Expression was analyzed using Affymetrix software.

The test system of series [3] is ACHN cells. The series is described as follows: growth of ACHN cells (data not shown). The series is classed as cell-based, human.
For the next series, the system named is RASSF1A promoter region. Put plainly: methylation specific PCR of RASSF1A. It is filed as cell-based, human. As to conditions: ACHN cells. How it is done: One microgram of genomic DNA, harvested with a blood DNA mini kit (Quiagen, Valencia, Calif.), was used for bisulfite modification with the CpGenome kit (Chemicon International, Temecula, Calif.) according to the manufacturer's instructions with final resuspension in 20 μl of 10 mM Tris/Ci, pH 8.5. Four μl of bisulfite modified DNA was used per 25 μl MSP reaction. Primers for RASSF1A MSP as published (15) were (5′ to 3′): M forward: GGG TTT TGC GAG AGC GCG (SEQ ID NO:41), M reverse: GCC AAG CGC AAA CAA TCG (SEQ ID NO:42), U forward: GGT TIT GTG AGA GTG TGT TTA G (SEQ ID NO:43), U reverse: AAACCAAACACAAACAATCAC (SEQ ID NO:44). PCR settings for methylated (M) primer pair were denaturation at 95° C. for 5 min, followed by 35 cycles with a 1 min denaturation step, 30 sec annealing at 60° C., and extension at 72° C. for 30 sec. Final extension after 35 cycles was at 72° C. for 4 min. For sequences specific for unmethylated (U) DNA settings were the same except for annealing at 55° C.

The next series relates to RASSF1A. The series is described as follows: RT-PCR for RASSF1A. It is filed as cell-based, human. Particulars: ACHN cells; data not shown.
Series [4] relates to ACHN cells. Put plainly: TUNEL flow cytometric analysis of apoptosis. Particulars: for resistance to IFN-induced apoptosis after pretreatment: FIG. 2A; for apoptosis, agent alone: FIG. 2B. The series is classed as cell-based, human. The method, then:
After the indicated time of DNMT1 inhibition cells were plated at 5000 cells/cm^2 for TUNEL assay with IFNs added 16 hr after plating. Four to 5 days after IFN administration cells were harvested and processed according to the manufacturer's instructions for TUNEL flow cytometric analysis (BD Pharmingen, San Diego, Calif.).
(In general: Flow cytometry measures light scatter and fluorescence of single cells or particles in a stream.)

The next series relates to caspase 3. The series is described as follows: caspase 3 activity assay. The series is classed as cell-based, human. Particulars: FIG. 3; pretreatment alone.
A further series concerns tumour xenograft models. Put plainly: tumour xenograft models. It is filed as in vivo. Particulars: daily dosing compared to intermittent administration.
Series [5] in a line: Phase I studies of MG98, toxicity.

T1 sequence (P26358 whole entry): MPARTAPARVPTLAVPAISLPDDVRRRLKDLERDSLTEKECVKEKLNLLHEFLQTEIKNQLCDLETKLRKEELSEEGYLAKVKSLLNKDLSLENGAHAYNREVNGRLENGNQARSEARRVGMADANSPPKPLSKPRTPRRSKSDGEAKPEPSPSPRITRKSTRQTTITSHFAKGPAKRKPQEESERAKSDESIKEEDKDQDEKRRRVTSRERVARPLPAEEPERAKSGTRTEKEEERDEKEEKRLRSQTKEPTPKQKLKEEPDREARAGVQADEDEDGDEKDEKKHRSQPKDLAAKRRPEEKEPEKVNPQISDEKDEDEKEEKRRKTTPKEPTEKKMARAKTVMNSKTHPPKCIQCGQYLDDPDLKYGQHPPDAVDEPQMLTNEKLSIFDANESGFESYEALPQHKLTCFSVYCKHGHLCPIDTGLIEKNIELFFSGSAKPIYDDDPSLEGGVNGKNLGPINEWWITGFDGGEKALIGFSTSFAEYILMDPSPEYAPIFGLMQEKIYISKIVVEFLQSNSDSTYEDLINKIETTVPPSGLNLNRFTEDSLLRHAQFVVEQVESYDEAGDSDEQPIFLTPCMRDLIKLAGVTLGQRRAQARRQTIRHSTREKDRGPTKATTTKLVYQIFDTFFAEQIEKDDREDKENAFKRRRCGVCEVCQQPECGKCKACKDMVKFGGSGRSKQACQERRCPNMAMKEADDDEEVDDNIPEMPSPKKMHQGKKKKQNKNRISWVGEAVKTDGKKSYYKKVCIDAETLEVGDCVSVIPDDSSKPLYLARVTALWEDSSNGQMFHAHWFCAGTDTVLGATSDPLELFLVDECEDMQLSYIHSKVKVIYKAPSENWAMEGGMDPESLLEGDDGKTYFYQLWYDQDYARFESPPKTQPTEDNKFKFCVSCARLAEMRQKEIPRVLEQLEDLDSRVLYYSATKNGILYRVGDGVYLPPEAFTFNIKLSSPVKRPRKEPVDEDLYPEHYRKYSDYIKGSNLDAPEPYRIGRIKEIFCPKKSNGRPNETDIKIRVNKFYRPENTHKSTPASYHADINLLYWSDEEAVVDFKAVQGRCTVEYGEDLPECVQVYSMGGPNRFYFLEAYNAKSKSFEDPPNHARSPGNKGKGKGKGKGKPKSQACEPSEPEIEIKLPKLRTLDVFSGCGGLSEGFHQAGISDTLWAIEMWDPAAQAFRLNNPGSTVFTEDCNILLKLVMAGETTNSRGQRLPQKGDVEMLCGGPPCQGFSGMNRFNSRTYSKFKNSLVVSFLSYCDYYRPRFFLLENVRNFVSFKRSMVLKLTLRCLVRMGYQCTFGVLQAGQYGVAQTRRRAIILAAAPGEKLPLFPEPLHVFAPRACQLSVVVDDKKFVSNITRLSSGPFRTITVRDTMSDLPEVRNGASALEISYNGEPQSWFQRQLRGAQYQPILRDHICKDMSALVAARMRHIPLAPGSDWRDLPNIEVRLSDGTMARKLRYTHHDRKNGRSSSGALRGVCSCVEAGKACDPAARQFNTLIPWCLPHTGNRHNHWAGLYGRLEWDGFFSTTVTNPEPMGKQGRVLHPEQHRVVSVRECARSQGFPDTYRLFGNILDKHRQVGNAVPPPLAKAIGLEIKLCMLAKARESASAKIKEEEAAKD

For the molecule “5′-UUCATGTCAGCCAAGGCCAC-3 (all phosphorothioate, sugars by position and methylation of C not given here; 2'-O-methyl gapmer) [MG98]”, the DNMT1 protein result with DNMT1 protein is on record as “suppressed up to 48 hrs”. Also, in the series with ACHN cells [1], the “stat1 expression, fold change over untreated” value was determined as 0.27 fold and the “stat2 expression, fold change over untreated” value turned out to be 1.05 fold. For the same molecule, the “number of genes increased at least two-fold compared to the mismatch oligonucleotide” value with ACHN cells [2] (DNMT1 AS alone, data not shown) was “One hundred and thirty-seven”. For the same molecule, the “expression of genes known to be involved in IFN-induced apoptosis” value in the series with ACHN cells [2] (Table 2) was “not significantly altered”. For the same molecule, in the series with ACHN cells [2] (compared to mismatch oligonucleotide), the “reduction in DNMT1 expression” value was 94%. Besides, the “expression of other DNMTs” value in the series with ACHN cells [2] (compared to mismatch oligonucleotide, data not shown) is listed as “without affecting expression of other DNMTs”. The “increase of IFN-stimulated gene IF127 over MM treated cells” value in the series on ACHN cells [2] (p<0.045) was “at least two-fold”. Also, in the series with ACHN cells [2] (relative to MM), the “Fold change in expression, Caspase 4” value is 1.41 (MI) fold; the “Fold change in expression, HSXIAPAF1 (XAF1)” value is 3.36 (NS) fold; the “Fold change in expression, IRF1” value was 1.32 (NS) fold; the “Fold change in expression, OAS1” value was 0.80 (NS) fold. Also, in the series on ACHN cells [2] (relative to MM), the “Fold change in expression, PRKR (PKR)” value turned out to be 0.71 fold; the “Fold change in expression, Stat1” value is given as 0.60 fold; the “Fold change in expression, Stat2” value is on record as 0.68 (NS) fold; the “Fold change in expression, TNFSF10 (TRAIL/Apo2L)” value was 0.93 (NS) fold. The growth entry in the series on ACHN cells [3] is “reduced”. In addition, the “methylation of RASSF1A promoter region” value with RASSF1A promoter region is “led to demethylation”. For the same molecule, the “amplification of full length RASSF1A cDNA” value in the series on RASSF1A was “single band”. In the series on ACHN cells [4], the “resistance to IFN-induced apoptosis after pretreatment” value (shortened to “resistance to IFN-induced apoptosis”) is on record as “overcome” and the “apoptosis, agent alone” value was “did not result in significant apoptosis”. The “caspase 3 activity” value in the series on caspase 3 is given as “increased caspase 3 activity”. In addition, the anti-tumour activity entry in the series on tumour xenograft models is on record as “greatest anti-tumour activity”. For the same molecule, the “dose levels resulting in frequent adverse events” value in series [5] (Phase I, 21-day infusion) is on record as “above 80 mg/m^2/day”. In [5] (intermittent schedule, 160 mg/m^2/day is 44% below the dose concerned), the “toxicity seen in nephrectomized patients” value is recorded as “grade 3 transaminitis”.
Consider “5′-TTAATGTAACCTAAGGTCAA-3′ (listed as DNA, chemistry not given here) [MM, mismatch control oligonucleotide]”, for which the “amplification of full length RASSF1A cDNA” value in the series on RASSF1A is listed as “no band”. In addition, the “cells apoptotic on TUNEL staining (up to)” value with ACHN cells [4] (5-AZA-dC over 24 days or oligonucleotide transfection over 6 to 8 days, then 50 U/ml IFN α or IFN β, 4-5 days after IFN) is recorded as “not”. For the same molecule, in the series with ACHN cells [4], the “resistance to IFN-induced apoptosis” value is “did not” and the “apoptosis, agent alone” value is listed as “did not result in significant apoptosis”.
As for `Nc1ncn([C@H]2C[C@H](O)[C@@H](CO)O2)c(=O)n1` [5-AZA-dC, 5-aza-deoxycytidine, reference compound], the DNMT1 protein result at DNMT1 protein is “suppressed up to 48 hrs”. In the series with ACHN cells [1], the “stat1 expression, fold change over untreated” value worked out at 0.57 fold and the “stat2 expression, fold change over untreated” value was found to be 1.38 fold. Moreover, the “resistance to IFN-induced apoptosis” value in the series with ACHN cells [4] is listed as “overcome”. The same molecule gave a TUNEL positive with ACHN cells [4] (agent alone, no IFN, 5-AZA-dC 4 days) of 20%. Also, the “caspase 3 activity” value in the series with caspase 3 is given as “increased caspase 3 activity”.
